Assay results reported in US4948782A, “A method of promoting the growth of domestic animals with erythromycin derivative containing composition” (Kitasato Kenkyusho, priority 1987, dated 1990).

What was measured:
Assay type in all cases: cell-based
[1] = tested on: Staphylococcus aureus ATCC 6538P; experiment: MIC, Staphylococcus aureus ATCC 6538P (SA(1)); settings: Staphylococcus aureus, ATCC6538P, Staphylococcus aureus ATCC 6538P; read-out: MIC SA (1)
From the text: (§1) The minimum inhibitory concentrations (MIC: mcg/ml) of the erythromycin derivatives of the present invention and the control erythromycin derivative (*) as the known growth promoting agent on typical test bacteria are shown in the following Tables 1 to 5.
SA(1): Staphylococcus aureus ATCC 6538P

[2] = tested on: Staphylococcus aureus FDA 209P; experiment: MIC, Staphylococcus aureus FDA 209P (SA(2)); settings: Staphylococcus aureus, FDA209P, Staphylococcus aureus FDA 209P; read-out: MIC SA (2)
From the text: as §1
SA(2): Staphylococcus aureus FDA 209P

Bacillus subtilis = experiment: MIC, Bacillus subtilis (BS); settings: read-out: MIC BS
Bacillus cereus IFO 3001 = experiment: MIC, Bacillus cereus IFO 3001 (BC); settings: Bacillus cereus, IFO3001, Bacillus cereus IFO 3001; read-out: MIC BC
Escherichia coli NIHJ = experiment: MIC, Escherichia coli NIHJ (EC)
[3] = tested on: Klebsiella pneumoniae ATCC 10031; experiment: MIC, Klebsiella pneumoniae ATCC 10031 (KP); settings: ATCC10031; Klebsiella pneumoniae ATCC 10031; read-out: MIC KP

Row | MIC [1] [µg/mL] | MIC [2] [µg/mL] | MIC (Bacillus subtilis) [µg/mL] | MIC (Bacillus cereus IFO 3001) [µg/mL] | MIC (Escherichia coli NIHJ) [µg/mL] | MIC [3] [µg/mL] | SMILES
1 | 6.25 | 12.5 | < 3.12 | 6.25 | > 100 | > 100 | CC[C@H]1OC(=O)[C@H](C)[C@@H](O[C@H]2C[C@@](C)(OC)[C@@H](O)[C@H](C)O2)[C@H](C)[C@@H](O[C@@H]2O[C@H](C)C[C@H]([N+](C)(C)CC)[C@H]2O)[C@](C)(O)C[C@@H](C)C(=O)[C@H](C)[C@@H](O)[C@]1(C)O [Compound 76]
2 | > 100 | > 100 | > 100 | > 100 | > 100 | > 100 | C#CC[N+](C)(C)[C@H]1C[C@@H](C)O[C@@H](O[C@@H]2[C@@H](C)[C@H](O[C@H]3C[C@@](C)(OC)[C@@H](O)[C@H](C)O3)[C@@H](C)C(=O)O[C@H](CC)[C@@](C)(O)[C@H](O)[C@@H](C)C3O[C@]2(C)CC3C)[C@@H]1O (stereo partly drawn) [Compound 67]
3 | 100 | 100 | > 100 | > 100 | > 100 | > 100 | CCCC[N+](C)(C)C1CC(C)OC(OC2C(C)C(OC3CC(C)(OC)C(O)C(C)O3)C(C)C(=O)OC(CC)C(C)(O)C(O)C(C)C3=C(C)CC2(C)O3)C1O (stereo not drawn) [Compound 49]
4 | > 100 | > 100 | > 100 | > 100 | > 100 | > 100 | CCC1OC(=O)C(C)C(OC2CC(C)(OC)C(O)C(C)O2)C(C)C(OC2OC(C)CC([N+](C)(C)CC)C2O)C2(C)CC(C)=C(O2)C(C)C(OS(C)(=O)=O)C1(C)O (stereo not drawn) [Compound 18]
5 | > 100 | > 100 | > 100 | > 100 | > 100 | > 100 | CCC[N+](C)(C)C1CC(C)OC(OC2C(C)C(OC3CC(C)(OC)C(O)C(C)O3)C(C)C(=O)OC(CC)C(C)(O)C(O)C(C)C3=C(C)CC2(C)O3)C1O (stereo not drawn) [Compound 6]
6 | 100 | 100 | 50 | 100 | > 100 | > 100 | CCC1OC(=O)C(C)C(OC2CC(C)(OC)C(O)C(C)O2)C(C)C(OC2OC(C)CC([N+](C)(C)Cc3ccccc3)C2O)C2(C)CC(C)=C(O2)C(C)C(O)C1(C)O (stereo not drawn) [Compound 17]
7 | 50 | 50 | 50 | 50 | > 100 | > 100 | C#CC[N+](C)(C)C1CC(C)OC(OC2C(C)C(OC3CC(C)(OC)C(O)C(C)O3)C(C)C(=O)OC(CC)C(C)(OC(C)=O)C(OC(C)=O)C(C)C3=C(C)CC2(C)O3)C1O (stereo not drawn) [Compound 28]
8 | 100 | 100 | 100 | 100 | > 100 | > 100 | C#CC[N+](CC#C)(CC#C)C1CC(C)OC(OC2C(C)C(OC3CC(C)(OC)C(O)C(C)O3)C(C)C(=O)OC(CC)C(C)(O)C(O)C(C)C3=C(C)CC2(C)O3)C1O (stereo not drawn) [Compound 48]
9 | 100 | 100 | > 100 | > 100 | > 100 | > 100 | C=CC[N+](C)(CC=C)C1CC(C)OC(OC2C(C)C(OC3CC(C)(OC)C(O)C(C)O3)C(C)C(=O)OC(CC)C(C)(O)C(O)C(C)C3=C(C)CC2(C)O3)C1O (stereo not drawn) [Compound 43]
10 | > 100 | > 100 | > 100 | > 100 | > 100 | > 100 | CCC1OC(=O)C(C)C(OC2CC(C)(OC)C(O)C(C)O2)C(C)C(OC2OC(C)CC(N(CC)CC)C2O)C2(C)CC(C)=C(O2)C(C)C(O)C1(C)O (stereo not drawn) [Compound 20]
